# Tests used:
# Assay type in all cases: cell-based, human
# GPR142 mRNA = GPR142 mRNA expression in NHEK cells, real-time PCR (Example 4); details: Compound 1 1 μM, Ca 1.2 mM, 3 days, compared to the control
# Protocol: In this example, the expression-inducing effects of Compound 1 on GPR142 mRNA and GPR22 mRNA in NHEK cells were confirmed.
# (§1) 1) 5×10^4 cells/well of NHEK cells (Invitrogen) were plated on a 24-well plate. Then, 500 μl of a culture medium containing a medium for proliferating normal human epidermal keratinocytes (HuMedia-KG2, KURABO INDUSTRIES LTD.) supplemented with hEGF (0.1 ng/ml), insulin (10 μg/ml), hydrocortisone (0.5 μg/ml), gentamycin (50 μg/ml), amphotericin B (50 ng/ml), and bovine brain pituitary extract (BPE) (0.4%, v/v) were added to the plate, and the cells were cultured under the conditions of 37° C. and 5% CO2.
# 2) After culture under the conditions of the step 1) for 1 day, the medium was exchanged for the culture medium of the step 1) to which a DMSO solution of Compound 1 was added at 1 μM per well every day and the culture was conducted for 3 days. […]
# 3) An extraction reagent (TRIzol™, Invitrogen) was used, and according to the manufacturer's protocol, total RNA was extracted from each of cells treated with the medicament. […] Next, real-time PCR was conducted by using the following primers and SYBR™ Premix Ex Taq (Takara) with a CFX96 real-time PCR instrument according to the manufacturer's protocol, and the amounts of GPR142mRNA and GPR22mRNA expression were measured. […]
# GPR22 = experiment: Blocking effect by GPR22 RNAi in NHEK cells (Reference Example 1); details: calcium priming, siRNA 10 nM, Compound 1 10 nM, 1 day
# Protocol: as §1
# 2) 1 day after the step 1), the medium was exchanged for the medium supplemented with calcium every day, and culture was conducted for 2 days (priming).
# 3) The NHEK cells of the step 2) were transfected with 10 nM of siRNA per well of the 24-well plate by using a transfection reagent, Lipofectamine RNA Max (Invitrogen) according to the manufacturer's protocol.
# 4) After culture for 1 day after the step 3), the medium was exchanged for a medium to which Compound 1 dissolved in DMSO was added at 10 nM per well on the 24-well plate, and culture was conducted for 1 day. As a control example, a solvent only (vehicle) was added.
# 5) An extraction reagent (TRIzol™, Invitrogen) was used, and according to the manufacturer's protocol, total RNA was extracted from each of cells treated with the medicament. A reverse transcriptase reagent (Prime Script™, Takara) was used, and according to the manufacturer's protocol, cDNA was prepared from the total RNA. Real-time PCR was conducted by using SYBR™ Premix Ex Taq (Takara) with a CFX96 real-time PCR instrument according to the manufacturer's protocol, and the amounts of GPR22 mRNA and FLG mRNA were measured. The results of measurement are shown as a GAPDH ratio.
# GPR142 [1] = experiment: Blocking effect by GPR142 RNAi in NHEK cells (Examples 5 and 6); details: calcium priming, siRNA 50 nM, Compound 1 10 nM, 1 day
# Protocol: In this example, it was confirmed that the expression-inducing effects of Compound 1 on GPR142 mRNA and FLG mRNA in NHEK cells were blocked by GPR142 RNAi.
# as §1
# 2) After culture under the conditions of the step 1) for 1 day, the medium was exchanged for the culture medium of the step 1) to which CaCl2 (1.2 mM in terms of Ca) was further added as Ca, and culture was conducted under the conditions of 37° C. and 5% CO2. After culture for 1 day, the medium was exchanged for the same culture medium containing Ca, and culture was further conducted for 1 day.
# 3) The NHEK cells of the step 2) were transfected with 50 nM of siRNA per well of the 24-well plate by using a transfection reagent, Lipofectamine RNA Max (Invitrogen) according to the manufacturer's protocol.
# The sequences of the used three kinds of GPR142 siRNAs and the sequences of the used control siRNAs (all the siRNAs are manufactured by Invitrogen) are described below.
# 4) After culture for 1 day after the transfection with siRNA in the step 3), the medium was exchanged for the culture medium of the step 1) to which a DMSO solution of Compound 1 was added at 10 nM per well, and culture was further conducted for 1 day. As a control, a solvent only (vehicle) was added.
# 5) An extraction reagent (TRIzol™, Invitrogen) was used, and according to the manufacturer's protocol, total RNA was extracted from each of cells treated with the medicament. A reverse transcriptase reagent (Prime Script™, Takara) was used, and according to the manufacturer's protocol, cDNA was prepared from the total RNA. Next, real-time PCR was conducted by using the following primers and SYBR™ Premix Ex Taq (Takara) with a CFX96 real-time PCR instrument according to the manufacturer's protocol, and the amounts of GPR142 mRNA and FLG mRNA expression were measured. The result of measurement is shown as a GAPDH ratio.
# In this example, it was confirmed that the expression-inducing effects of Compound 2 or 3 on GPR142 mRNA and FLG mRNA in NHEK cells were blocked by GPR142 RNAi.
# NHEK cells were transfected in the same manner as in Example 5 except that, in the steps 1) to 3) of Example 5, two kinds of GPR142 siRNAs and two kinds of control siRNAs, i.e., GPR142-1 (#HSS139493) and GPR142-3 (#HSS179846) and Control-1 (LOW GC, #129350-200), and Control-3 (HIGH GC, #129350-400) were used as GPR142 siRNAs and control siRNAs, respectively. After culture for 1 day after the transfection was conducted in the same manner as in the step 4) of Example 5, the medium was exchanged for the culture medium to which each of a DMSO solution of Compound 1, a DMSO solution of Compound 2, or a methanol solution of Compound 3 was added at 10 nM per well, and culture was further conducted for 1 day. As a control, a solvent only (vehicle) was added. Regarding each of cells treated with the medicament, real-time PCR was conducted to measure the amounts of GPR142 mRNA and FLG mRNA in the same manner as in the step 5) of Example 5. The results of the measurement are shown as a GAPDH ratio.
# GPR142 [2] = experiment: G protein-coupled receptor (GPCR) array in NHEK cells, GPR142 (Example 3); details: Compound 1 1 μM, 3 days
# Protocol: In this example, the expression-increasing effect of Compound 1 on a GPCR in NHEK cells was confirmed by using a GPCR array.
# as §1, with “plate, and then” for “plate. Then,”, “CO2 for from 3 to 4 days until the 80 to 85% confluent state was achieved.” for “CO2.”
# 2) Next, a DMSO solution of Compound 1 was added to the medium at 1 μM per well, and culture was further conducted for 3 days without changing the medium. In addition, regarding the system to which only CaCl2 (1.5 mM in terms of Ca) as Ca was added and the system to which both Compound 1 and CaCl2 (1.5 mM in terms of Ca) as Ca were added, the culture was conducted in a similar manner for 3 days. As a control example, a solvent only (vehicle) was added.
# 3) An extraction reagent (TRIzol™, Invitrogen) was used, and according to the manufacturer's protocol, total RNA was extracted from each of cells treated in the step 2). A reverse transcriptase reagent (Prime Script™, Takara) was used, and according to the manufacturer's protocol, cDNA was prepared from the total RNA. Next, a TaqMan™ human GPCR array (AB 4365295, Applied Biosystems) was used, and the analysis was conducted by an ABI PRISM™ 7900HT gene analyzer (Applied Biosystems). The result of measurement was shown as the comparison of the cycle number (ΔCt value) to 18S ribosomal RNA as a control (comparative Ct method).
structure (smiles),measurement,setting,value
"[Ca+2].[Cl-].[Cl-] [Calcium, CaCl2, reference compound]",GPR142 mRNA expression (GAPDH ratio),GPR142 mRNA,GPR142 mRNA expression was induced
same,FLG mRNA expression in the presence of GPR22 siRNA,GPR22,not suppressed
same,GPR22 mRNA expression in the presence of GPR22 siRNA,GPR22,suppressed by GPR22 siRNA
same,FLG mRNA expression in the presence of GPR142 siRNA,GPR142 [1],suppressed by GPR142 siRNA
same,GPR142 mRNA expression in the presence of GPR142 siRNA,GPR142 [1],suppressed by GPR142 siRNA
same,"GPR142 mRNA expression (GPCR array), in words",GPR142 [2]; Ca 1.5 mM,induced GPR142 mRNA expression
same,GPR142: cycle number (ΔCt value) to 18S ribosomal RNA,"GPR142 [2]; CaCl2 1.5 mM in terms of Ca, control 29.2",−4.9
